Key:
[1] = tested on: Small Brown Planthopper (Laodelphax Striatellus); assay: Test of insecticidal efficacy against small brown planthopper (Test Example 2); type: in vivo; conditions: 500 ppm, rice plants soaked 30 seconds, third-instar larvae, eight days after inoculation; criteria same as in Test Example 1
Text: Test of Insecticidal Efficacy Against Small Brown Planthopper (Laodelphax Striatellus)

[2] = tested on: Green Peach Aphid (Myzus Persicae); assay: Test of preventive value against green peach aphid (Test Example 1); type: in vivo; conditions: 500 ppm, sprayed over stems and leaves of potted Chinese cabbages, sixth day after spraying
Procedure: Test of Preventive Value Against Green Peach Aphid (Myzus Persicae)
Chinese cabbages were planted in plastic pots, each with a size of 8 cm in diameter and 8 cm in height, after which green peach aphids were propagated and the number of parasitic insects was examined in each pot. An oxazepine compound or salt thereof expressed by General Formula (I) according to the present invention was dispersed in water and the dispersion was diluted to 500 ppm in the form of a reagent, after which the reagent was sprayed over stems and leaves of potted Chinese cabbages and let dry under wind, and the pots were kept in a greenhouse, and on the sixth day after the reagent was sprayed, the number of green peach aphids living parasitically on each Chinese cabbage was examined and the preventive value was calculated based on the formula below, and judgment was made according to the criteria below. Preventive value=100−{(T×Ca)/(Ta×C)}×100 [Mathematical Formula 1] • Ta: Number of parasitic insects inside the treatment area before spraying • T: Number of parasitic insects inside the treatment area after spraying • Ca: Number of parasitic insects inside the non-treatment area before spraying • C: Number of parasitic insects inside the non-treatment area after spraying Judgment Criteria • A - - - Preventive value: 100% • B - - - Preventive value: 99%˜90% • C - - - Preventive value: 89%˜80% • D - - - Preventive value: 79%˜50%

Row | Compound | Corrected insect mortality, judgment [1] | Preventive value, judgment [2]
1 | N#CCN1C(=O)c2nn(-c3cccnc3)cc2Oc2ccc(F)cc21 [1-17] | A to D | A to D
2 | CN1C(=O)c2nn(-c3cccnc3)cc2Oc2cccc(F)c21 [1-19] | A to D | A to D
3 | CN1C(=O)c2nn(-c3cccnc3)cc2Oc2c(Cl)cccc21 [1-23] | A to D | A to D
4 | O=C1Nc2ccc(Cl)cc2Oc2cn(-c3cccnc3)nc21 [1-26] | A to D | A to D
5 | CN1C(=O)c2nn(-c3cccnc3)cc2Oc2cc(Cl)ccc21 [1-27] | A to D | A to D
6 | C#CCN1C(=O)c2nn(-c3cccnc3)cc2Oc2cc(Cl)ccc21 [1-28] | A to D | A to D
7 | N#CCN1C(=O)c2nn(-c3cccnc3)cc2Oc2cc(Cl)ccc21 [1-29] | A to D | A to D
8 | Cc1ccc2c(c1)Oc1cn(-c3cccnc3)nc1C(=O)N2 [1-30] | A to D | A to D
9 | C#CCN1C(=O)c2nn(-c3cccnc3)cc2Oc2cc(C)ccc21 [1-32] | A to D | A to D
10 | Cc1ccc2c(c1)Oc1cn(-c3cccnc3)nc1C(=O)N2CC#N [1-33] | A to D | A to D
11 | CN1C(=O)c2nn(-c3cccnc3)cc2Oc2cc(C(F)(F)F)ccc21 [1-34] | A to D | A to D
12 | C#CCN1C(=O)c2nn(-c3cccnc3)cc2Oc2cc(C(F)(F)F)ccc21 [1-35] | A to D | A to D
13 | N#CCN1C(=O)c2nn(-c3cccnc3)cc2Oc2cc(C(F)(F)F)ccc21 [1-36] | A to D | A to D
14 | O=C1Nc2cc(C(F)(F)F)ccc2Oc2cn(-c3cccnc3)nc21 [1-37] | A to D | A to D
15 | CN1C(=O)c2nn(-c3cccnc3)cc2Oc2ccc(C(F)(F)F)cc21 [1-38] | A to D | A to D
16 | COc1ccc2c(c1)Oc1cn(-c3cccnc3)nc1C(=O)N2 [1-39] | A to D | A to D
17 | COc1ccc2c(c1)Oc1cn(-c3cccnc3)nc1C(=O)N2C [1-40] | A to D | A to D
18 | C#CCN1C(=O)c2nn(-c3cccnc3)cc2Oc2cc(OC)ccc21 [1-41] | A to D | A to D
19 | COc1ccc2c(c1)Oc1cn(-c3cccnc3)nc1C(=O)N2CC#N [1-42] | A to D | A to D
20 | Nc1ccc2c(c1)NC(=O)c1nn(-c3cccnc3)cc1O2 [1-44] | A to D | A to D

Row | Compound | Corrected insect mortality, judgment [1] | Preventive value, judgment [2]
21 | CN1C(=O)c2nn(-c3cccnc3)cc2Oc2ccc(N)cc21 [1-45] | A to D | A to D
22 | CN(C)c1ccc2c(c1)N(C)C(=O)c1nn(-c3cccnc3)cc1O2 [1-46] | A to D | A to D
23 | CN1C(=O)c2nn(-c3cccnc3)cc2Oc2cc(C#N)ccc21 [1-47] | A to D | A to D
24 | C#CCN1C(=O)c2nn(-c3cccnc3)cc2Oc2cc(C#N)ccc21 [1-48] | A to D | A to D
25 | N#Cc1ccc2c(c1)NC(=O)c1nn(-c3cccnc3)cc1O2 [1-50] | A to D | A to D
26 | CCCCN1C(=O)c2nn(-c3cccnc3)cc2Oc2ccccc21 [1-51] | A to D | A to D
27 | CCCCCCN1C(=O)c2nn(-c3cccnc3)cc2Oc2ccccc21 [1-52] | A to D | A to D
28 | CCCCCCCCN1C(=O)c2nn(-c3cccnc3)cc2Oc2ccccc21 [1-53] | A to D | A to D
29 | C=CCN1C(=O)c2nn(-c3cccnc3)cc2Oc2ccccc21 [1-55] | A to D | A to D
30 | COc1ccc(CN2C(=O)c3nn(-c4cccnc4)cc3Oc3ccccc32)cc1 [1-56] | A to D | A to D
31 | O=C1c2nn(-c3cccnc3)cc2Oc2ccccc2N1Cc1ccccn1 [1-57] | A to D | A to D
32 | O=C1c2nn(-c3cccnc3)cc2Oc2ccccc2N1Cc1cccnc1 [1-58] | A to D | A to D
33 | O=C1c2nn(-c3cccnc3)cc2Oc2ccccc2N1CCc1ccccc1 [1-62] | A to D | A to D
34 | COCN1C(=O)c2nn(-c3cccnc3)cc2Oc2ccccc21 [1-67] | A to D | A to D
35 | COCCN1C(=O)c2nn(-c3cccnc3)cc2Oc2ccccc21 [1-68] | A to D | A to D
36 | O=C1c2nn(-c3cccnc3)cc2Oc2ccccc2N1CCN1CCCCC1 [1-70] | A to D | A to D
37 | O=C1c2nn(-c3cccnc3)cc2Oc2ccccc2N1CCN1CCOCC1 [1-71] | A to D | A to D
38 | CC(=O)N1C(=O)c2nn(-c3cccnc3)cc2Oc2ccccc21 [1-73] | A to D | A to D
39 | COC(=O)CN1C(=O)c2nn(-c3cccnc3)cc2Oc2ccccc21 [1-74] | A to D | A to D
40 | CC(C)(C)OC(=O)CN1C(=O)c2nn(-c3cccnc3)cc2Oc2ccccc21 [1-75] | A to D | A to D

Row | Compound | Corrected insect mortality, judgment [1] | Preventive value, judgment [2]
41 | O=C(CN1C(=O)c2nn(-c3cccnc3)cc2Oc2ccccc21)c1ccc(Cl)cc1 [1-76] | A to D | A to D
42 | CC(C#N)N1C(=O)c2nn(-c3cccnc3)cc2Oc2ccccc21 (stereo not drawn) [1-77] | A to D | A to D
43 | CN1C(=O)c2nn(-c3cncnc3)cc2Oc2ccccc21 [1-79] | A to D | A to D
44 | CN1C(=O)c2nn(-c3cncc(F)c3)cc2Oc2cc(F)ccc21 [1-80] | A to D | A to D
45 | C#CCN1C(=O)c2nn(-c3cncc(F)c3)cc2Oc2cc(F)ccc21 [1-81] | A to D | A to D
46 | S=C1Nc2ccccc2Oc2cn(-c3cccnc3)nc21 [2-1] | A to D | A to D
47 | Fc1ccc2c(c1)NC(=S)c1nn(-c3cccnc3)cc1O2 [2-5] | A to D | A to D
48 | c1cncc(-n2cc3c(n2)CNc2ccccc2O3)c1 [3-1] | A to D | A to D
49 | CN1C(=O)c2nn(-c3cccnc3)cc2Oc2ncc(C(F)(F)F)cc21 [4-10] | A to D | A to D
50 | CN1C(=O)c2nn(-c3cccnc3)cc2Oc2cnccc21 [5-2] | A to D | A to D
51 | O=C1NC=COc2cn(-c3cccnc3)nc21 [7-1] | A to D | A to D
52 | CN1C=COc2cn(-c3cccnc3)nc2C1=O [7-2] | A to D | A to D
53 | CSCN1C(=O)c2nn(-c3cccnc3)cc2Oc2ccccc21 [8-2] | A to D | A to D
54 | CS(=O)(=O)CN1C(=O)c2nn(-c3cccnc3)cc2Oc2ccccc21 [8-4] | A to D | A to D
55 | COC(CN1C(=O)c2nn(-c3cccnc3)cc2Oc2ccccc21)OC [8-10] | A to D | A to D
56 | O=CN1C(=O)c2nn(-c3cccnc3)cc2Oc2ccccc21 [8-12] | A to D | A to D
57 | COC(=O)N1C(=O)c2nn(-c3cccnc3)cc2Oc2ccccc21 [8-13] | A to D | A to D
58 | O=C1c2nn(-c3cccnc3)cc2Oc2ccccc2N1CC(F)(F)C(F)(F)F [8-20] | A to D | A to D
59 | CSCN1C(=O)c2nn(-c3cccnc3)cc2Oc2cc(F)ccc21 [8-24] | A to D | A to D
60 | COCN1C(=O)c2nn(-c3cccnc3)cc2Oc2cc(F)ccc21 [8-25] | A to D | A to D
